# What was measured:
# [1] = solution for injection; cited from earlier work
# [2] = Ocular pharmacokinetic study in monkey, intravitreal injection on Day 1, 29 and 57; format: in vivo, cynomolgus monkeys; conditions: monkeys; IVT 5 μg/eye Day 1, 29, 57; calculated post third dose, sampling interval Day 57-99
# diabetic rats = conditions: cited from earlier work
molecule,measurement,setting,value
Ecallantide,Safety in medical use,[1],risk of anaphylactic reactions
"CCOc1ccc(C[C@@H](NC(=O)c2ccccc2)C(=O)N[C@@H](Cc2ccccc2)C(=O)NCc2ccc(CN)cc2)cc1.Cl [Compound 1, N-[(R)-1-[(S)-1-(4-Aminomethyl-benzylcarbamoyl)-2-phenyl-ethylcarbamoyl]-2-(4-ethoxy-phenyl)-ethyl]-benzamide hydrochloride]","AUC0-last in Ocular Tissue, Aqueous Humor",[2],"1,410 ng · h/mL or ng · h/g"
same,"AUC0-last in Ocular Tissue, Choroid-Tissue",[2],"32,200 ng · h/mL or ng · h/g"
same,"AUC0-last in Ocular Tissue, Retina- Tissue",[2],"166,000 ng · h/mL or ng · h/g"
same,"AUC0-last in Ocular Tissue, Vitreous Humor",[2],"1,110 ng · h/mL or ng · h/g"
N=C(N)c1ccc(CNC(=O)c2cnn(Cc3ccccc3)c2)cc1 [ASP-440],Retinal blood flow abnormalities,diabetic rats,ameliorated
same,Retinal vascular permeability,diabetic rats,ameliorated
